Measured values reported in US11098010B2 (priority 2017, dated 2021).
Where a name gives a salt, the structure may show the parent alone.

The compounds below were run on HBV rcDNA in HepDE19 cells (assay: HepDE19 assay with bDNA quantitation of HBV rcDNA). Conditions: HepDE19 cells, inhibition of rcDNA formation, 7 day incubation, top concentration 25 μM; read-out: DE-19 bDNA EC50.
Format: cell-based, hepatitis B virus (HBV)
Work on `COC(=O)NC1c2cccc(C(=O)Nc3ccc(F)c(F)c3)c2CC1O` (centres unmarked) [Compound 52, O-methyl, N-(4-((3,4-difluorophenyl)carbamoyl)-2-hydroxy-2,3-dihydro-1H-inden-1-yl) carbamate] yielded an EC50 of 19 µM. Work on `O=C(NC1CCc2c(C(=O)Nc3ccc(F)c(Cl)c3)cncc21)OCc1ccccn1` (centres unmarked) [Compound 269, O-pyridin-2-ylmethyl, N-(4-((3-chloro-4-fluorophenyl)carbamoyl)-6,7-dihydro-5H-cyclopenta[c]pyridin-7-yl) carbamate] yielded an EC50 of 2.3 µM. For `COC(=O)NC1c2c(F)ccc(C(=O)Nc3ccc(F)c(Cl)c3)c2CC1(C)C` (centres unmarked) [Compound 122, O-Methyl, N-(4-((3-chloro-4-fluorophenyl)carbamoyl)-7-fluoro-2,2-dimethyl-2,3-dihydro-1H-inden-1-yl) carbamate], the EC50 was 0.47 µM. For `O=C(NC1CSc2c(C(=O)Nc3ccc(F)c(Cl)c3)cccc21)OCc1ccccn1` (centres unmarked) [Compound 36, O-Pyridin-2-ylmethyl, N-(7-((3-chloro-4-fluorophenyl)carbamoyl)-2,3-dihydrobenzo[b]thiophen-3-yl) carbamate], the EC50 was > 25 µM. `CN1C(=O)NC2(CCc3c(C(=O)Nc4ccc(F)c(Cl)c4)ccc(F)c32)C1=O` (single isomer, unassigned) [Compound 262, N-(3-chloro-4-fluoro-phenyl)-7′-fluoro-1-methyl-2,5-dioxo-spiro [imidazolidine-4,1′-indane]-4′-carboxamide] gave an EC50 of 14 µM.

Same assay, conditions: Hepatitis B virus, HepDE19, 168 h, HepDE19 cells, inhibition of rcDNA formation, 7 day incubation, top concentration 25 μM; read-out: DE-19 bDNA EC50
`CNS(=O)(=O)N[C@H]1CCc2c(C(=O)Nc3ccc(F)c(Cl)c3)cccc21` [Compound 230, (S)-N-(3-chloro-4-fluorophenyl)-1-((N-methylsulfamoyl)amino)-2,3-dihydro-1H-indene-4-carboxamide] gave an EC50 of 0.36 µM. `CNS(=O)(=O)N[C@H]1CCc2c(C(=O)Nc3ccc(F)c(Cl)c3)ccc(F)c21` [Compound 227, (S)—N-(3-Chloro-4-fluorophenyl)-7-fluoro-1-((N-methylsulfamoyl)amino)-2,3-dihydro-1H-indene-4-carboxamide] was tested, and the EC50 was 0.43 µM. Compound `CNC(=O)O[C@H]1CCc2c(C(=O)Nc3ccc(F)c(Cl)c3)ccc(F)c21` [Compound 89, O—(S)-4-((3-Chloro-4-fluorophenyl)carbamoyl)-7-fluoro-2,3-dihydro-1H-inden-1-yl, N-methyl Carbamate] has an EC50 of 0.56 µM. In the case of `O=C(Nc1ccc(F)c(Cl)c1)c1cccc2c1CNS2(=O)=O` [Compound 275, N-(3-Chloro-4-fluorophenyl)-2,3-dihydrobenzo[d]isothiazole-4-carboxamide-1,1-dioxide], the EC50 is reported as 0.25 µM. `O=C(Nc1ccc(F)c(Cl)c1)c1ccc(F)c2c1CC[C@@H]2NS(=O)(=O)NC1CC1` [Compound 243, (S)-N-(3-chloro-4-fluorophenyl)-1-((N-cyclopropylsulfamoyl)amino)-7-fluoro-2,3-dihydro-1H-indene-4-carboxamide] showed an EC50 of 0.16 µM. `Cn1ccc(S(=O)(=O)N[C@H]2CCc3c(C(=O)Nc4ccc(F)c(Cl)c4)ccc(F)c32)n1` [Compound 101, (S)—N-(3-Chloro-4-fluorophenyl)-7-fluoro-1-((1-methyl-1H-pyrazole)-3-sulfonamido)-2,3-dihydro-1H-indene-4-carboxamide] gave an EC50 of 0.72 µM. `CC(C)(C)N1Cc2c(C(=O)Nc3ccc(F)c(Cl)c3)cccc2S1(=O)=O` [Compound 274, 2-(tert-Butyl)-N-(3-chloro-4-fluorophenyl)-2,3-dihydrobenzo[d]isothiazole-4-carboxamide 1,1-dioxide] gave an EC50 of 4.1 µM. `O=C(Nc1ccc(F)c(Cl)c1)c1cccc2c1CN(C1CC1)S2(=O)=O` [Compound 279, N-(3-chloro-4-fluorophenyl)-2-cyclopropyl-2,3-dihydrobenzo[d]isothiazole-4-carboxamide 1,1-dioxide] was tested, and the EC50 was 0.58 µM. Work on `Cn1ccc(COC(=O)N[C@H]2CCc3c(C(=O)Nc4ccc(F)c(Cl)c4)ccc(F)c32)n1` [Compound 71, O-(1-Methyl-1H-pyrazol-3-yl)methyl, N—(S)-(4-((3-chloro-4-fluorophenyl)carbamoyl)-7-fluoro-2,3-dihydro-1H-inden-1-yl) carbamate] yielded an EC50 of 0.06 µM. `O=C(N[C@H]1CCc2c(C(=O)Nc3ccc(F)c(Cl)c3)ccc(F)c21)c1nccs1` [Compound 127, (S)—N-(4-((3-Chloro-4-fluorophenyl)carbamoyl)-7-fluoro-2,3-dihydro-1H-inden-1-yl)thiazole-2-carboxamide] showed an EC50 of 0.36 µM.

Same assay, conditions: Hepatitis B virus, HepDE19, 168 h, read-out: DE-19 bDNA EC50 (μM), HepDE19 cells, inhibition of rcDNA formation, 7 day incubation, top concentration 25 μM
`O=C(Nc1ccc(F)c(Cl)c1)c1ccc(F)c2c1CC[C@@H]2Nc1nccs1` [Compound 146, (S)—N-(3-Chloro-4-fluorophenyl)-7-fluoro-1-(thiazol-2-ylamino)-2,3-dihydro-1H-indene-4-carboxamide] was tested, and the EC50 was 0.24 µM. With `COc1nccc(N[C@H]2CCc3c(C(=O)Nc4ccc(F)c(Cl)c4)ccc(F)c32)n1` [Compound 161, (S)—N-(3-Chloro-4-fluorophenyl)-7-fluoro-1-((2-methoxypyrimidin-4-yl)amino)-2,3-dihydro-1H-indene-4-carboxamide] the EC50 was 0.27 µM. With `O=C(N[C@H]1CCc2c(C(=O)Nc3ccc(F)c(Cl)c3)ccc(F)c21)OCC1CS(=O)(=O)CCN1` (stereo partly drawn) [Compound 177, O-(1,1-Dioxidothiomorpholin-3-yl)methyl, N—((S)-4-((3-chloro-4-fluorophenyl)carbamoyl)-7-fluoro-2,3-dihydro-1H-inden-1-yl) carbamate Hydrochloride] the EC50 was 0.5 µM. `CC(=O)NCCOC(=O)N[C@H]1CCc2c(C(=O)Nc3ccc(F)c(Cl)c3)ccc(F)c21` [Compound 157, O-2-Acetamidoethyl, N—(S)-(4-((3-chloro-4-fluorophenyl)carbamoyl)-7-fluoro-2,3-dihydro-1H-inden-1-yl) carbamate] was tested, and the EC50 was 0.26 µM. In the case of `Cn1ccc(CNC(=O)N[C@H]2CCc3c(C(=O)Nc4ccc(F)c(Cl)c4)ccc(F)c32)n1` [Compound 194], the EC50 is reported as 0.16 µM. In the case of `O=C1CC(COC(=O)N[C@H]2CCc3c(C(=O)Nc4ccc(F)c(Cl)c4)ccc(F)c32)N1` (stereo partly drawn) [Compound 213, O-(4-Oxoazetidin-2-yl)methyl, N—((S)-4-((3-chloro-4-fluorophenyl)carbamoyl)-7-fluoro-2,3-dihydro-1H-inden-1-yl) carbamate], the EC50 is reported as 0.33 µM. `Cc1ccnc(N[C@H]2CCc3c(C(=O)Nc4ccc(F)c(Cl)c4)ccc(F)c32)n1` [Compound 160] showed an EC50 of 0.25 µM. In the case of `O=C(Nc1ccc(F)c(Cl)c1)c1ccc(F)c2c1CC[C@@H]2NS(=O)(=O)c1ccccc1` [Compound 183, (S)—N-(3-Chloro-4-fluorophenyl)-7-fluoro-1-(phenylsulfonamido)-2,3-dihydro-1H-indene-4-carboxamide], the EC50 is reported as 0.65 µM. Compound `O=C(N[C@H]1CCc2c(C(=O)Nc3ccc(F)c(Cl)c3)ccc(F)c21)OCc1cc[nH]n1` [Compound 193, O-(1H-Pyrazol-3-yl)methyl, N—(S)-(4-((3-chloro-4-fluorophenyl)carbamoyl)-7-fluoro-2,3-dihydro-1H-inden-1-yl) carbamate] has an EC50 of 0.06 µM.

Same assay, conditions: read-out: DE-19 bDNA EC50; HepDE19 cells, inhibition of rcDNA formation, 7 day incubation, top concentration 25 μM
`COC(=O)NC1CSc2c(C(=O)Nc3ccc(F)c(F)c3)ccc(F)c21` (centres unmarked) [Compound 55, O-Methyl, N-(7-((3,4-difluorophenyl)carbamoyl)-4-fluoro-2,3-dihydrobenzo[b]thiophen-3-yl) carbamate] was tested, and the EC50 was 1.2 µM. With `CNC(=O)NC1COc2c(C(=O)Nc3ccc(F)c(Cl)c3)ccc(F)c21` (single isomer, unassigned) [Compound 190, N-(3-Chloro-4-fluorophenyl)-4-fluoro-3-(3-methylureido)-2,3-dihydrobenzofuran-7-carboxamide] the EC50 was > 25 µM.
